Reference: US10087185B2 (Janssen Pharmaceutica NV, priority 2016, dated 2018)

Molecular target: TARP γ8 dependent AMPA receptor (GRIA1o-CACNG8 fusion construct) (Homo sapiens (Human), UniProt P42261+Q8WXS5)
Experiment: Calcium flux assay (FLIPR), inhibition of glutamate response of GluA1o-γ8 channel
Assay type: cell-based
Conditions: HEK293 cells stably expressing GRIA1o-CACNG8 fusion; calcium flux after 15 μM glutamate; negative log of the IC50 in molar
Method in brief: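 HEK293 clonal line stably expressing a GRIA1o-CACNG8 fusion (1:1 GluA1o:γ8), loaded with Calcium-5/6 dye plus compound in HEPES buffer pH 7.4. FLIPR calcium flux read after 15 μM glutamate; normalized to no-compound and 10 μM CP465022 controls. Four-parameter logistic fit gives IC50, reported as pIC50.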

Chain of TARP γ8 dependent AMPA receptor (GRIA1o-CACNG8 fusion construct) (P42261 other isoform, or with tags, fused parts or gaps): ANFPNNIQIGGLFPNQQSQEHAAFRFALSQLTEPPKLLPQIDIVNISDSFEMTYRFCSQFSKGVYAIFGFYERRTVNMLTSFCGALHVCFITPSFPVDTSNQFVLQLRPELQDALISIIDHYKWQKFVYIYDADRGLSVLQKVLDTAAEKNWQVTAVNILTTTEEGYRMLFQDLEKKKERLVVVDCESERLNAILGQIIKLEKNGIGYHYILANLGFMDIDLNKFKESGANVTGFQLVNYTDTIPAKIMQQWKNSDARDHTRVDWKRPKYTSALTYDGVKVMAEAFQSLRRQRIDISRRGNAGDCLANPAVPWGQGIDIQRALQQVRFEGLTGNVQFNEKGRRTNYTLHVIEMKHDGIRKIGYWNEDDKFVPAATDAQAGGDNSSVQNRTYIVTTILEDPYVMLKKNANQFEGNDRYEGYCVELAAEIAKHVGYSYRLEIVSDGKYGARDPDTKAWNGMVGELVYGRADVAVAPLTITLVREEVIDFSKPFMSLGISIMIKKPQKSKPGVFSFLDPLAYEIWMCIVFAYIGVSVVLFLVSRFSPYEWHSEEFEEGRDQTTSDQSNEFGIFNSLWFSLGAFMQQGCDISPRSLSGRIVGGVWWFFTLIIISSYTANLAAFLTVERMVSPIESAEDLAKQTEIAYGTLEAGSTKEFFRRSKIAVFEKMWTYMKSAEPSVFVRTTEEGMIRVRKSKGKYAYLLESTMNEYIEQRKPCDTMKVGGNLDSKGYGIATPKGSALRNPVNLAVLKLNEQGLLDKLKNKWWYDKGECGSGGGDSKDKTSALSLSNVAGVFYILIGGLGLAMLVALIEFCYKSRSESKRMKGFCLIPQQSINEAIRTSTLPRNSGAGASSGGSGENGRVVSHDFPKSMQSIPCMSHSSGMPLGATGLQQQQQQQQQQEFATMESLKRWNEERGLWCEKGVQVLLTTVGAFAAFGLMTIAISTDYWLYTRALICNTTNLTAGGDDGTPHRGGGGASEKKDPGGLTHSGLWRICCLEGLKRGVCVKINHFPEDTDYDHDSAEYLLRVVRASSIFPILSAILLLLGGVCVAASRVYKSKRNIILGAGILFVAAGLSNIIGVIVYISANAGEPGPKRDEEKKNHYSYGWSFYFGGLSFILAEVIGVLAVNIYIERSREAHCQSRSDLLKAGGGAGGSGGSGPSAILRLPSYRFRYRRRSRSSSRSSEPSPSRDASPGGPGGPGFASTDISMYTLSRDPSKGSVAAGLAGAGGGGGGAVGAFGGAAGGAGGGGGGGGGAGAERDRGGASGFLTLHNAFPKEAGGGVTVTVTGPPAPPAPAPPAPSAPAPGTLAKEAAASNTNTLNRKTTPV

Structure (SMILES)	IC50 [nM]	pIC50
CCc1nc2ccc(C(F)(F)F)c(-c3cc(Cl)c4c(c3)CC(=O)N4)n2n1 [Example 27, 7-Chloro-5-(2-ethyl-6-(trifluoromethyl)-[1,2,4]triazolo[1,5-a]pyridin-5-yl)indolin-2-one]	1.26	
Cc1nc2ccc(C(F)(F)F)c(-c3cc(C)c4[nH]ncc4c3)n2n1 [Example 22, 2-Methyl-5-(7-methyl-1H-indazol-5-yl)-6-(trifluoromethyl)-[1,2,4]triazolo[1,5-a]pyridine]	12.6	
CCc1cc(C(F)(F)F)c(-c2cc(C)c3[nH]ncc3c2)n2nc(C3CC3)nc12 [Example 81, 2-Cyclopropyl-8-ethyl-5-(7-methyl-1H-indazol-5-yl)-6-(trifluoromethyl)-[1,2,4]triazolo[1,5-a]pyridine]	0.501	
CCc1cc(C(F)F)c(-c2cc(C)c3[nH]ncc3c2)n2nc(C3CC3)nc12 [Example 94, 2-Cyclopropyl-6-(difluoromethyl)-8-ethyl-5-(7-methyl-1H-indazol-5-yl)-[1,2,4]triazolo[1,5-a]pyridine]	0.398	
CCc1nc2c(Cl)cc(C(F)(F)F)c(-c3cc(Cl)c4[nH]ncc4c3)n2n1 [Example 29, 8-Chloro-5-(7-chloro-1H-indazol-5-yl)-2-ethyl-6-(trifluoromethyl)-[1,2,4]triazolo[1,5-a]pyridine]	0.398	
Cc1cc(-c2c(C(F)(F)F)cc(C)c3nc(C(F)F)nn23)cc2cn[nH]c12 [Example 79, 2-(Difluoromethyl)-8-methyl-5-(7-methyl-1H-indazol-5-yl)-6-(trifluoromethyl)-[1,2,4]triazolo[1,5-a]pyridine]	0.398	
COc1cc(-c2c(C(F)(F)F)ccc3nc(C(F)F)nn23)cc2c1NC(=O)C2 [Example 12, 5-(2-(Difluoromethyl)-6-(trifluoromethyl)-[1,2,4]triazolo[1,5-a]pyridin-5-yl)-7-methoxyindolin-2-one]	5.01	
Fc1ccc(-c2ccc3nc(C(F)(F)F)nn3c2-c2ccc3[nH]ncc3c2)cc1 [Example 56, 6-(4-Fluorophenyl)-5-(1H-indazol-5-yl)-2-(trifluoromethyl)-[1,2,4]triazolo[1,5-a]pyridine]	1.26	
CCCc1nc2c(Cl)cc(C(F)(F)F)c(-c3cc(Cl)c4c(c3)CC(=O)N4)n2n1 [Example 97, 7-Chloro-5-(8-chloro-2-propyl-6-(trifluoromethyl)-[1,2,4]triazolo[1,5-a]pyridin-5-yl)indolin-2-one]	0.501	
CCc1nc2ccc(C(F)F)c(-c3cc(Cl)c4[nH]ncc4c3)n2n1 [Example 44, 5-(7-Chloro-1H-indazol-5-yl)-6-(difluoromethyl)-2-ethyl-[1,2,4]triazolo[1,5-a]pyridine]	0.398	
CCc1nc2c(CC)cc(C(F)(F)F)c(-c3cc(C)c4[nH]ncc4c3)n2n1 [Example 90, 2,8-Diethyl-5-(7-methyl-1H-indazol-5-yl)-6-(trifluoromethyl)-[1,2,4]triazolo[1,5-a]pyridine]	3.16	
COc1ccc2nc(C(F)F)nn2c1-c1cc(Cl)c2[nH]ncc2c1 [Example 13, 5-(7-Chloro-1H-indazol-5-yl)-2-(difluoromethyl)-6-methoxy-[1,2,4]triazolo[1,5-a]pyridine]	5.01	
CCc1nc2ccc(C(F)(F)F)c(-c3cc(C)c4[nH]ncc4c3)n2n1 [Example 26, 2-Ethyl-5-(7-methyl-1H-indazol-5-yl)-6-(trifluoromethyl)-[1,2,4]triazolo[1,5-a]pyridine]	1	
Cc1cc(-c2c(C(F)F)ccc3nc(C(F)(F)F)nn23)cc2c1NC(=O)C2 [Example 19, 5-[6-(Difluoromethyl)-2-(trifluoromethyl)-[1,2,4]triazolo[1,5-a]pyridin-5-yl]-7-methyl-indolin-2-one]	0.631	
Cc1cc(-c2c(C(F)F)cc(C)c3nc(C(F)(F)F)nn23)cc2cn[nH]c12 [Example 111, 6-(Difluoromethyl)-8-methyl-5-(7-methyl-1H-indazol-5-yl)-2-(trifluoromethyl)-[1,2,4]triazolo[1,5-a]pyridine]	0.794	
FC(F)(F)c1ccc2cc(C3CC3)nn2c1-c1cc(Cl)c2[nH]ncc2c1 [Example 118, 7-Chloro-5-(2-cyclopropyl-6-(trifluoromethyl)pyrazolo[1,5-a]pyridin-7-yl)-1H-indazole]		10.2

More lines, in order of falling IC50, values ahead:

IC50 [nM]	pIC50	Structure (SMILES)
0.316		CC(C)c1nc2c(F)cc(C(F)(F)F)c(-c3cc(Cl)c4[nH]ncc4c3)n2n1 [Example 34, 5-(7-Chloro-1H-indazol-5-yl)-8-fluoro-2-isopropyl-6-(trifluoromethyl)-[1,2,4]triazolo[1,5-a]pyridine]
0.251		O=C1Cc2cc(-c3c(C(F)(F)F)ccc4nc(C(F)(F)F)nn34)cc(Cl)c2N1 [Example 3, 5-(2,6-Bis(trifluoromethyl)-[1,2,4]triazolo[1,5-a]pyridin-5-yl)-7-chloroindolin-2-one]
0.251		Cc1cc(C(F)F)c(-c2cc(Cl)c3c(c2)CC(=O)N3)n2nc(C(F)(F)F)cc12 [Example 124, 7-Chloro-5-[6-(difluoromethyl)-4-methyl-2-(trifluoromethyl)pyrazolo[1,5-a]pyridin-7-yl]indolin-2-one]
0.2		Cc1cc(-c2c(C(F)(F)F)cc(F)c3nc(C4CC4)nn23)cc2cn[nH]c12 [Example 33, 2-Cyclopropyl-8-fluoro-5-(7-methyl-1H-indazol-5-yl)-6-(trifluoromethyl)-[1,2,4]triazolo[1,5-a]pyridine]
0.126		FC(F)(F)c1ccc2nc(C3CC3)nn2c1-c1cc(Cl)c2[nH]ncc2c1 [Example 38, 5-(7-Chloro-1H-indazol-5-yl)-2-cyclopropyl-6-(trifluoromethyl)-[1,2,4]triazolo[1,5-a]pyridine]
0.126		Cc1cc(-c2c(C(F)F)cc(C)c3cc(C(F)(F)F)nn23)cc2cn[nH]c12 [Example 123, 6-(Difluoromethyl)-4-methyl-7-(7-methyl-1H-indazol-5-yl)-2-(trifluoromethyl)pyrazolo[1,5-a]pyridine]
0.1		CC(F)(F)c1nc2ccc(C(F)(F)F)c(-c3cc(Cl)c4[nH]ncc4c3)n2n1 [Example 42, 5-(7-Chloro-1H-indazol-5-yl)-2-(1,1-difluoroethyl)-6-(trifluoromethyl)-[1,2,4]triazolo[1,5-a]pyridine]
0.0631		FC(F)(F)c1ccc2cc(C3CC3)nn2c1-c1cc(Cl)c2[nH]ncc2c1 [Example 70, 7-Chloro-5-(2-cyclopropyl-6-(trifluoromethyl)pyrazolo[1,5-a]pyridin-7-yl)-1H-indazole]
0.0501		Cc1cc(-c2c(C(F)F)cc(C)c3cc(C(F)(F)F)nn23)cc2c1NC(=O)C2 [Example 122, 5-[6-(Difluoromethyl)-4-methyl-2-(trifluoromethyl)pyrazolo[1,5-a]pyridin-7-yl]-7-methyl-indolin-2-one]
0.0501		Cc1cc(-c2c(C(F)F)ccc3cc(C(F)(F)F)nn23)cc2c1NC(=O)C2 [Example 119, 5-[6-(Difluoromethyl)-2-(trifluoromethyl)pyrazolo[1,5-a]pyridin-7-yl]-7-methyl-indolin-2-one]
0.0158		Cc1cc(-c2c(C(F)(F)F)ccc3cc(C(F)(F)F)nn23)cc2cn[nH]c12 [Example 64, 5-(2,6-Bis(trifluoromethyl)pyrazolo[1,5-a]pyridin-7-yl)-7-methyl-1H-indazole]
